Patent US12617818B2, “Compositions and methods for modulating myosin subfragment-2 coiled coil stability and methods for using them” (UNIVERSITY OF NORTH TEXAS, priority 2020, dated 2026)

Test system: rabbit skeletal muscle myofibrils
Experiment: Myofibrillar contractility assays (20 μL myofibril drop, 18 mM ATP added)
Type: biochemical
Settings: for % Contraction of imaged myofibril (FIG. 55, 56): after ATP; for IC50: read-out: IC-50 Value (50 percent of the reduction in percent contractility)
Experimental: Propionic acid, imidazole, and Mg(C2H3O2)2 were purchased from Sigma-Aldrich (St. Louis, MO). Boric Acid and KOH were purchased (EM Industries, Gibbstown, NJ). CaCl2) were purchased from Avantor (Center Valley, PA). We used myofibrils previously extracted and prepared from rabbit skeletal muscle as described by Duong and Reisler (1989). Afterwards, we stored the myofibril suspension with glycerol in a 1:1 ratio at −10° C.
We created a buffer solution with 2.2 mM Mg(C2H3O2)2, 10 mM imidazole, 130 mM propionic acid, 0.1 mM CaCl2) and titrated the solution with 10 M KOH until the pH reached 7. We decided to combine these chemicals and target a pH of 7 in order to simulate regular cell conditions for the myofibrils.
We began by extracting 50 mg of the myofibril suspension and adding 1 mL of our buffer into a 2 mL microcentrifuge tube. Next, we centrifuged the tube three times at 5000 RPM for 5 minutes on an IEC Micromax microcentrifuge, thereby isolating the denser myofibril from the lighter glycerol and unnecessary cellular constituents. After each centrifugation, we disposed of the supernatant and filled the microcentrifuge tube to 1 mL again with our buffer. Furthermore, we used a Fisher Vortex Genie 2™ to dislodge the pellet from the bottom of the microcentrifuge tube, making the next centrifugation effective. Following the series of centrifugations, we stored the myofibrils with the buffer in a 4° C. fridge to maintain their biological function. Every 2 days, we prepared new myofibrils with the method described above because previous batches of myofibril would be subject to rigor mortis: muscle death where myofibrils are indefinitely contracted.
A myofibrillar contractility assay tests the effect of certain chemical compounds on myofibril contraction. The assay involves the interaction of myofibrils with ATP, and we measured sarcomere length before and after the addition of ATP to determine percent contractility of myofibrils.
We created an apparatus for myofibrillar contractility assays by attaching a coverslip to a modified petri dish using electrical tape. Each coverslip used on the apparatus can run three assays total. We placed the apparatus on a ZEISS IM35™ inverted microscope equipped with a CANON POWERSHOT A510™ connected to one of the microscope's ocular lenses. Our apparatus allowed us to precisely adjust the field of view of the microscope, enabling efficient and quality imaging (FIG. 8).
To run an assay, we first placed a 20 μL drop of our prepared myofibrils onto the coverslip. Then, we added chemical modifiers (peptides and antibodies) to each droplet as needed and used a CARL ZEISS PLAN 40/0.65 160/0.17™ objective lens to focus on the myofibrils with the microscope. Since the antibodies have a much larger molecular mass than the peptides, we determined that the antibodies would also require a longer period of time to diffuse throughout the myofibril droplet. We allowed the antibodies a minimum of 5 minutes to diffuse into the myofibril solution while we gave peptide modifiers 30 seconds to settle into the solution.
These myofibrils would be likely to show evidence of contraction when they interacted with the ATP in the assay. We photographed the chosen myofibril before the addition of ATP. Then, we pipetted 2 μL of 18 mM ATP on the myofibril droplet, and we typically observed a visible contraction within 30 seconds. We needed to carefully watch the camera screen when adding the ATP because the addition of ATP solution onto the drop or the motion of the myofibril as it contracted would occasionally displace the myofibril. If the myofibril moved, we adjusted our field of view accordingly so that the myofibril was visible once again.
After the contraction concluded, we re-imaged the myofibril to compare the current sarcomere length with the initial sarcomere length. […]

| EC50 (read-out: EC-50 value (50 percent of the increase in percent contraction)) | IC50 | SMILES | % Contraction (20 nM) | After (sarcomere length after ATP) (20 nM) | Before (sarcomere length before ATP) (20 nM) | % Contraction (40 nM) | After (sarcomere length after ATP) (40 nM) | Before (sarcomere length before ATP) (40 nM) | % Contraction of imaged myofibril (FIG. 55, 56) (40 nM) | % Contraction (80 nM) | After (sarcomere length after ATP) (80 nM) | Before (sarcomere length before ATP) (80 nM) | % Contraction (200 nM) | After (sarcomere length after ATP) (200 nM) | Before (sarcomere length before ATP) (200 nM) | induction of contraction compared to control group (high concentrations) | % Contraction (10 nM) | After (sarcomere length after ATP) (10 nM) | Before (sarcomere length before ATP) (10 nM) |
| --- | --- | --- | --- | --- | --- | --- | --- | --- | --- | --- | --- | --- | --- | --- | --- | --- | --- | --- | --- |
| 8 ± 4 nM | 12 ± 6 nM | CSCC[C@H](NC(=O)[C@H](CCC(=O)O)NC(=O)[C@H](CCCNC(=N)N)NC(=O)[C@H](CCC(=O)O)NC(=O)[C@H](CC(=O)O)NC(=O)[C@H](CCC(=O)O)NC(=O)[C@H](CC(C)C)NC(=O)[C@H](CCCNC(=N)N)NC(=O)[C@H](CCC(=O)O)NC(=O)[C@H](CC(N)=O)NC(=O)[C@H](CCSC)NC(=O)[C@@H](N)CCC(=O)O)C(=O)N[C@@H](CCCCN)C(=O)N[C@@H](C)C(=O)N[C@@H](CCC(=O)O)C(=O)N[C@@H](CC(C)C)C(=O)N[C@H](C(=O)N[C@@H](C)C(=O)N[C@@H](CCCCN)C(=O)O)[C@@H](C)O [Destabilizer] | 21 ± 3% | 1.7 μm | 2.2 μm | 25 ± 8% | 1.7 μm | 2.2 μm | 30% | 32 ± 4% | 1.5 μm | 2.3 μm | 35 ± 7% | 1.5 μm | 2.3 μm | more than two-fold | – | – | – |
| – | 68 ± 27 nM | C[C@H](NC(=O)[C@H](CCCCN)NC(=O)[C@H](Cc1ccccc1)NC(=O)[C@H](CCCCN)NC(=O)[C@H](CCCCN)NC(=O)[C@H](CCCCN)NC(=O)[C@H](CCCCN)NC(=O)[C@H](CCCCN)NC(=O)[C@H](CCCCN)NC(=O)[C@H](CCCCN)NC(=O)[C@@H](N)CCCCN)C(=O)N[C@@H](CCCCN)C(=O)N[C@@H](CCCCN)C(=O)N[C@@H](CCCCN)C(=O)N[C@@H](CCCCN)C(=O)N[C@@H](CCCCN)C(=O)N[C@@H](CCCCN)C(=O)O [Stabilizer] | – | – | – | 10 ± 1% | 1.9 μm | 2.2 μm | 11% | 9 ± 2% | 2.0 μm | 2.2 μm | 8 ± 1% | 2.0 μm | 2.2 μm | – | 12 ± 2% | 1.9 μm | 2.1 μm |
